Experimental data as given in article PMC8812569, “A widely distributed phosphate-insensitive phosphatase presents a route for rapid organophosphorus remineralization in the biosphere” (Proceedings of the National Academy of Sciences of the …, 2022).

Columns and labels:
Assay in all cases: pNP release at […] nm in whole cells of complemented P. putida phoX mutant
[1] = molecular target: T1, PhoA1^Fj (Flavobacterium johnsoniae, UniProt A5FEV6); format: cell-based, Pseudomonas putida; conditions: 10 mM pNPP; growth medium or Tris-HCl pH 9.4; 28 °C
T1 construct: gene Fjoh_3249; full gene expressed from pBBR1MCS-km in P. putida BIRD-1 phoX mutant; whole-cell assay
T1 sequence (A5FEV6 19-607): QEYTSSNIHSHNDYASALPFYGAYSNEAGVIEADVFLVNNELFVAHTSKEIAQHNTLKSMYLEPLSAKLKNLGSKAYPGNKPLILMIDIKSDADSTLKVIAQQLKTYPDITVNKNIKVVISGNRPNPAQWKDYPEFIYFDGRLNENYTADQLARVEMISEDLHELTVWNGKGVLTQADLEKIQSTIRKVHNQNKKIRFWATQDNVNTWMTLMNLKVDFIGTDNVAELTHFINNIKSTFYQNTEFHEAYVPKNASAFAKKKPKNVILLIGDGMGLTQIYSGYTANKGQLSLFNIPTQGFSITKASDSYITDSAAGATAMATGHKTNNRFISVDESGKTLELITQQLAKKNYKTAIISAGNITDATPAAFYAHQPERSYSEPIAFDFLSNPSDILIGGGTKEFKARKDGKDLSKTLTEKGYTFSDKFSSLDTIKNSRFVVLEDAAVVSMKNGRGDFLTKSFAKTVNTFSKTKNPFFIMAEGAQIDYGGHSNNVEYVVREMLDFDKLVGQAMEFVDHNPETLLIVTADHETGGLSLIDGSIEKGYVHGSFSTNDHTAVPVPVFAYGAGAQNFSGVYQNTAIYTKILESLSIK

[2] = molecular target: T2, PafA^Fj (Flavobacterium johnsoniae, UniProt A5FP14); format: cell-based; conditions: 10 mM pNPP; growth medium or Tris-HCl pH 9.4; 28 °C
T2 construct: gene Fjoh_0023; full gene expressed from pBBR1MCS-km in P. putida BIRD-1 phoX mutant; whole-cell assay
T2 sequence (A5FP14 19-539): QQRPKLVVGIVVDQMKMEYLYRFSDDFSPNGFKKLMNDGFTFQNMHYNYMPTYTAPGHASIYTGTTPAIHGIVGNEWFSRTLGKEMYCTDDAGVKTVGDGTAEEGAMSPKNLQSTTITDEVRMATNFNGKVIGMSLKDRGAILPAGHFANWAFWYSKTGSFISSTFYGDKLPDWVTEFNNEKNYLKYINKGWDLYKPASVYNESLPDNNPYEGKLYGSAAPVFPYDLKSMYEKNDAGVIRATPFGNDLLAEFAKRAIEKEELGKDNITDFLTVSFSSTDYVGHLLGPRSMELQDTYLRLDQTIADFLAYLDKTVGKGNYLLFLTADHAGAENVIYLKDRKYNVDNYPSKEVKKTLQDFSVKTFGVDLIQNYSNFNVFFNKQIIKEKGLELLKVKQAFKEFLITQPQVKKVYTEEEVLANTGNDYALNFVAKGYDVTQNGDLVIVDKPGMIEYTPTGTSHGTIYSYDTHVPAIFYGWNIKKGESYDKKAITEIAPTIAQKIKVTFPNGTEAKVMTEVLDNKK

[3] = molecular target: T3, PhoA2^Fj (Flavobacterium johnsoniae, UniProt A5FF14); format: cell-based; conditions: 10 mM pNPP; growth medium or Tris-HCl pH 9.4; 28 °C
T3 construct: gene Fjoh_3187; full gene expressed from pBBR1MCS-km in P. putida BIRD-1 phoX mutant; whole-cell assay
T3 sequence (A5FF14 27-468): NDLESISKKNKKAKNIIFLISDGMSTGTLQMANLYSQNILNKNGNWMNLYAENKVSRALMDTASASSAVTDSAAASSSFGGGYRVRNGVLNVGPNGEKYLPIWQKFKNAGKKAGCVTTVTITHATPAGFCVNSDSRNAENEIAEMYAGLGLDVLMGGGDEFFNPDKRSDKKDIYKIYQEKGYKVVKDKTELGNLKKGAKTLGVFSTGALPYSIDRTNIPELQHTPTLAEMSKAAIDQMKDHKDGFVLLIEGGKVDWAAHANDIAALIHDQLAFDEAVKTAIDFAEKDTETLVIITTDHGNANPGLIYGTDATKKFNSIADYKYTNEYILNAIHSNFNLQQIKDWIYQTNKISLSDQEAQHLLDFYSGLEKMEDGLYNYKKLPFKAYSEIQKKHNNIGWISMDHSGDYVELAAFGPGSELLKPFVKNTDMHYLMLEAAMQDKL

[4] = molecular target: T4, PhoA^Ec (Escherichia coli, UniProt P00634); format: cell-based, Pseudomonas putida; conditions: 10 mM pNPP; growth medium or Tris-HCl pH 9.4; 28 °C
T4 construct: full gene expressed in P. putida BIRD-1 phoX mutant; whole-cell assay

[5] = molecular target: T5, PafA^Cp2 (Chitinophaga pinensis, UniProt A0A979G1Z1); format: cell-based; conditions: 10 mM pNPP
T5 construct: gene Cpin_1665; synthesized gene expressed in P. putida BIRD-1 phoX mutant; whole-cell assay
T5 sequence (A0A979G1Z1 29-568): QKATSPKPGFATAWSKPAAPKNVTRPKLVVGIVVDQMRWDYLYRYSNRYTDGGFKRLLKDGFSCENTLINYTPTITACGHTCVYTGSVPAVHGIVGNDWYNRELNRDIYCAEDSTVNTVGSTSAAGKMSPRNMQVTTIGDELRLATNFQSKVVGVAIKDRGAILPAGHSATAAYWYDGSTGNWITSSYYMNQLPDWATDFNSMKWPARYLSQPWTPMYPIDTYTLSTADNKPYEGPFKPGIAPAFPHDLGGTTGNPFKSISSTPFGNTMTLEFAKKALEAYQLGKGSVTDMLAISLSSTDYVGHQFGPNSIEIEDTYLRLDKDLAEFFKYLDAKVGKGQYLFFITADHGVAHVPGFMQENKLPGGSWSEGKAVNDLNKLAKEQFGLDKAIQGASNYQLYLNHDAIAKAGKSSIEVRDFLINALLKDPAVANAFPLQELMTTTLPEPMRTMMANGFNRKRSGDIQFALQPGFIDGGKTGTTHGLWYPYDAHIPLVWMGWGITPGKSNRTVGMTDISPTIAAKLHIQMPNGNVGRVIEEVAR

[6] = molecular target: T6, PafA^Cp1 (Chitinophaga pinensis, UniProt A0A979GMC5); format: cell-based; conditions: 10 mM pNPP
T6 construct: gene Cpin_0724; synthesized gene expressed in P. putida BIRD-1 phoX mutant; whole-cell assay
T6 sequence (A0A979GMC5 26-545): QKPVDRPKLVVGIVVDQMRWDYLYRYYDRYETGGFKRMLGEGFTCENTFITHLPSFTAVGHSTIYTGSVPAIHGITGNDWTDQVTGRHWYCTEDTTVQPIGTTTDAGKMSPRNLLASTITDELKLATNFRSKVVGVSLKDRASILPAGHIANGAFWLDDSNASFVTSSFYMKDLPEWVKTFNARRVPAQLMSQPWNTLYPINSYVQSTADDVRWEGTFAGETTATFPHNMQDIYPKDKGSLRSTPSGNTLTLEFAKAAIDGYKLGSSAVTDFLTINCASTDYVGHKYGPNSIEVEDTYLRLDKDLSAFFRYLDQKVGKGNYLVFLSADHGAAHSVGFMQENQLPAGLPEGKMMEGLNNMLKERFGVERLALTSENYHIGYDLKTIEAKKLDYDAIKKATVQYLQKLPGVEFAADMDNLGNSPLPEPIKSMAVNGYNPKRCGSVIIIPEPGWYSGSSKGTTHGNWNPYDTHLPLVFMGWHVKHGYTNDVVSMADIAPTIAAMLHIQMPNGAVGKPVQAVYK

T4 sequence (P00634 22-471): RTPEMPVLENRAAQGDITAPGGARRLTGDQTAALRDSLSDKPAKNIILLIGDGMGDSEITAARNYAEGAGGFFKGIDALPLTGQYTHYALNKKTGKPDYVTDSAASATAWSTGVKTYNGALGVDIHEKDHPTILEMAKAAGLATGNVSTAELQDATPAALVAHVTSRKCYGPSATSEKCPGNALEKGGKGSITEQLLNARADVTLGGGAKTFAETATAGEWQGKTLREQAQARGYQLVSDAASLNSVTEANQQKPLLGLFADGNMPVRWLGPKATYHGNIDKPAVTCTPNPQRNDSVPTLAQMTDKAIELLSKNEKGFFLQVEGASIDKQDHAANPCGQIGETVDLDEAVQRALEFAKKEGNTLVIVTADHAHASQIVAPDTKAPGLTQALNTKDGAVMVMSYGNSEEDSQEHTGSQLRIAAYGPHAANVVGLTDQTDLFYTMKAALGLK

## O=[N+]([O-])c1ccc(OP(=O)(O)O)cc1 [para-nitrophenyl phosphate]
[1]
  PME activity: cells producing PhoA1^Fj (+pBXphoA1^Fj), PhoA2^Fj (+pBXphoA2^Fj), or PafA^Fj (+pBXpafA^Fj) also restored PME activity
[2]
  PME activity: or PafA^Fj (+pBXpafA^Fj) also restored PME activity, confirming their function as PMEs
[3]
  PME activity: cells producing PhoA1^Fj (+pBXphoA1^Fj), PhoA2^Fj (+pBXphoA2^Fj), or PafA^Fj (+pBXpafA^Fj) also restored PME activity
[4]
  PME activity: Plasmid copies of either phoX^BIRD (+pBXphoX^BIRD) or the E. coli phoA (+pBXphoA^Ec) restored PME activity
[5]
  PME activity: demonstrating both are functional Pi-insensitive PMEs
[6]
  PME activity: demonstrating both are functional Pi-insensitive PMEs
